# According to ChEMBL document CHEMBL1201862, “PubChem BioAssay data set” (2004):
#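 Compound exposure: 48 hours, 5 concentrations, 96-well plates. GI50 = concentration required for 50% inhibition of growth.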 Active and inactive are the calls of the source. No stated cut-off is given here; in the data, active = GI50 up to about 1.1 µM and inactive = higher.
# Columns and labels:
# Experiment in all cases: NCI-60 cell line screen, 48 h
# COLO 205 = test system: COLO 205
# Malme-3M = test system: Malme-3M
# DU-145 = test system: DU-145
# SW-620 = test system: SW-620
# OVCAR-4 = test system: OVCAR-4
# CCRF-CEM = test system: CCRF-CEM
# HCT-116 = test system: HCT-116
# UACC-257 = test system: UACC-257
# SK-MEL-28 = test system: SK-MEL-28
# SK-OV-3 = test system: SK-OV-3
# TK-10 = test system: TK-10
# OVCAR-8 = test system: OVCAR-8
# NCI/ADR-RES = test system: NCI/ADR-RES
# SF-295 = test system: SF-295
# MDA-N = test system: MDA-N
# A498 = test system: A498
# A549 = test system: A549
# MOLT-4 = test system: MOLT-4
# RXF 393 = test system: RXF 393
# HCT-15 = test system: HCT-15
SMILES,GI50 (COLO 205),GI50 (Malme-3M),GI50 (DU-145),GI50 (SW-620),GI50 (OVCAR-4),GI50 (CCRF-CEM),GI50 (HCT-116),GI50 (UACC-257),GI50 (SK-MEL-28),GI50 (SK-OV-3),GI50 (TK-10),GI50 (OVCAR-8),GI50 (NCI/ADR-RES),GI50 (SF-295),GI50 (MDA-N),GI50 (A498),GI50 (A549),GI50 (MOLT-4),GI50 (RXF 393),GI50 (HCT-15) [µM]
O=C(NNCC(O)COc1ccccc1)c1ccccc1 (stereo not given),> 100 µM (inactive),> 100 µM (inactive),> 100 µM (inactive),> 100 µM (inactive),> 100 µM (inactive),> 100 µM (inactive),> 100 µM (inactive),> 100 µM (inactive),> 100 µM (inactive),> 100 µM (inactive),> 100 µM (inactive),> 100 µM (inactive),> 100 µM (inactive),> 100 µM (inactive),> 100 µM (inactive),> 100 µM (inactive),> 100 µM (inactive),> 100 µM (inactive),> 100 µM (inactive),> 100
O=C1NC2c3c(I)sc(I)c3C(O)C2O1 (stereo not given),> 100 µM (inactive),> 100 µM (inactive),> 100 µM (inactive),> 100 µM (inactive),> 100 µM (inactive),52.8 µM (inactive),> 100 µM (inactive),> 100 µM (inactive),> 100 µM (inactive),> 100 µM (inactive),> 100 µM (inactive),> 100 µM (inactive),> 100 µM (inactive),> 100 µM (inactive),> 100 µM (inactive),> 100 µM (inactive),> 100 µM (inactive),> 100 µM (inactive),> 100 µM (inactive),> 100
CCN(CC)CCn1ncc2ccc3c(c(=O)c4cccnc4n3CCN(CC)CC)c21,0.493 µM (active),1.75 µM (inactive),2.41 µM (inactive),0.519 µM (active),0.933 µM (active),0.348 µM (active),0.385 µM (active),1.88 µM (inactive),2.05 µM (inactive),1.16 µM (inactive),2.24 µM (inactive),0.561 µM (active),1.45 µM (inactive),1.3 µM (inactive),0.861 µM (active),0.598 µM (active),0.618 µM (active),0.344 µM (active),0.67 µM (active),0.743
C[C@]12CC[C@H]3[C@@H](CCC4=CC(=O)CC[C@@]43C)[C@]1(O)CC[C@]2(O)C(=O)CO,> 100 µM (inactive),> 100 µM (inactive),> 100 µM (inactive),> 100 µM (inactive),> 100 µM (inactive),> 100 µM (inactive),> 100 µM (inactive),> 100 µM (inactive),> 100 µM (inactive),> 100 µM (inactive),> 100 µM (inactive),> 100 µM (inactive),> 100 µM (inactive),> 100 µM (inactive),> 100 µM (inactive),> 100 µM (inactive),> 100 µM (inactive),> 100 µM (inactive),> 100 µM (inactive),> 100
FC(F)(F)c1ccc2c(c1)nc(Cc1ccccc1)n2C[C@@H]1CCCN2CCCCC12 (stereo not given in full),14.1 µM (inactive),15.2 µM (inactive),15.5 µM (inactive),21.7 µM (inactive),15.2 µM (inactive),17.1 µM (inactive),14.1 µM (inactive),14.7 µM (inactive),16.2 µM (inactive),17.5 µM (inactive),17.1 µM (inactive),15.3 µM (inactive),15.1 µM (inactive),15.8 µM (inactive),12.7 µM (inactive),15.5 µM (inactive),15 µM (inactive),12.9 µM (inactive),8.55 µM (inactive),14.6
